Laboratory results from the supplement of paper PMC8671470.
± gives the standard deviation of the averaged measurements.

Columns and labels:
Conditions in all cases: 72 h
NOMO-1 [1] = test system: NOMO-1
Procedure, shortened: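 Each of fifteen myeloid leukaemia cell lines was seeded in RPMI 1640 at a density titrated to its linear growth range. The cells were incubated for 72 h at 37 °C and 5% CO2 with compounds at five tenfold doses from 1 to 10,000 nM, in duplicate. After ATP luminescence was normalised to vehicle and to a positive control at 10 µM, four-parameter log-logistic curves were fitted. These curves gave the IC50.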

MOLM-13 = experiment: cell viability (% survival relative to DMSO control, bortezomib = 0%); higher = less cytotoxic
Procedure, shortened: (§1)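 After 72 h at 37 °C with 5% CO2, cell viability in 384-well plates was measured by CellTiter-Glo luminescence. The plates held compounds pre-printed at 1, 10, 100, 1000 or 10000 nM in duplicate, and cells from 10 AML and 5 CML lines seeded at densities titrated to linear growth. Percent survival is the duplicate mean, normalised to vehicle as 100% and a 10 µM positive control as 0%.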

BV-173 = experiment: as above
Procedure, shortened: as §1

K-562 = experiment: as above
Procedure, shortened: as §1

NOMO-1 [2] = experiment: as above
Procedure, shortened: as §1

MV4-11 = experiment: as above
Procedure, shortened: as §1

Mono-Mac-6 = experiment: as above
Procedure, shortened: as §1

SHI-1 = experiment: as above
Procedure, shortened: as §1

LAMA-84 = experiment: as above
Procedure, shortened: as §1

KCL-22 = experiment: as above
Procedure, shortened: as §1

ML-2 = experiment: as above
Procedure, shortened: as §1

KU-812 = experiment: as above
Procedure, shortened: as §1

HEL = experiment: as above
Procedure, shortened: as §1

THP-1 = experiment: as above
Procedure, shortened: as §1

KG-1 = experiment: as above
Procedure, shortened: as §1

HL-60 [3] = experiment: as above
Procedure, shortened: as §1

HL-60 [4] = experiment: cell viability (% survival relative to DMSO control); higher = less cytotoxic
Procedure, shortened: (§2)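 A rescreen of the full library used HL-60 cells in RPMI 1640 with 10% FBS on 384-well plates, run in duplicate at five tenfold concentrations (1–10,000 nM). Each screen included DMSO or 100 nM of one of three metabolic inhibitors and ran 72 h at 37 °C, 5% CO2. CellTiter-Glo viability was scaled between DMSO and 10 μM proteasome-inhibitor wells. Any area under the curve comes from four-parameter log-logistic fits with drc and PharmacoGx.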

HL-60 [5] = experiment: area under dose-response curve (viability, 1 nM-10 uM) (fraction (0-1)); higher = more sensitive
Procedure, shortened: as §2

CC(C)c1ccc2c(c1)c(SC(C)(C)C)c(CC(C)(C)C(=O)O)n2Cc1ccc(Cl)cc1 [MK-886]
Conditions | IC50 (cell viability) [µM]
NOMO-1 [1] | > 10

Conditions | area under dose-response curve, co-treatment: AZD3965 100 nM | area under dose-response curve, co-treatment: DMSO vehicle | area under dose-response curve, co-treatment: GSK2194069 100 nM | area under dose-response curve, co-treatment: pictilisib 100 nM | cell viability, 1 nM [%] | cell viability, 10 nM [%] | cell viability, 100 nM [%] | cell viability, 1000 nM [%] | cell viability, 10000 nM [%]
BV-173 | – | – | – | – | 121 | 89.6 | 114 | 103 | 94.9
HEL | – | – | – | – | 110 | 112 | 99.2 | 95.3 | 82.7
HL-60 [3] | – | – | – | – | 108 | 103 | 94.8 | 93.7 | 124
HL-60 [5] | < 0.0301 | < 0.0301 | < 0.0301 | < 0.0301 | – | – | – | – | –
K-562 | – | – | – | – | 109 | 97 | 101 | 100 | 106
KCL-22 | – | – | – | – | 108 | 110 | 105 | 89.7 | 39.1
KG-1 | – | – | – | – | 111 | 102 | 89.4 | 93.8 | 91.5
KU-812 | – | – | – | – | 109 | 97.3 | 94.1 | 94.9 | 91.5
LAMA-84 | – | – | – | – | 96.6 | 101 | 97.2 | 100 | 115
ML-2 | – | – | – | – | 132 | 107 | 95.3 | 95.8 | 67.8
MOLM-13 | – | – | – | – | 89 | 103 | 88.9 | 85.3 | 88.4
MV4-11 | – | – | – | – | 107 | 109 | 96.9 | 94.5 | 96.5
Mono-Mac-6 | – | – | – | – | 111 | 109 | 91.5 | 101 | 108
NOMO-1 [2] | – | – | – | – | 120 | 110 | 106 | 107 | 97.5
SHI-1 | – | – | – | – | 108 | 110 | 104 | 93.2 | 98.3
THP-1 | – | – | – | – | 96.6 | 101 | 98.2 | 96.8 | 108

cell viability [%], HL-60 [4]
Conditions | 0.001 µM | 0.01 µM | 0.1 µM | 1 µM | 10 µM
co-treatment: AZD3965 100 nM | 105 ± 4.8 | 95.8 ± 12 | 108 ± 7.9 | 99.8 ± 2 | 102 ± 3.9
co-treatment: DMSO vehicle | 103 ± 0.78 | 99.9 ± 1.5 | 104.5 ± 0.84 | 107 ± 2.3 | 109.9 ± 1
co-treatment: GSK2194069 100 nM | 104 ± 2.2 | 98.8 ± 5.2 | 105 ± 13 | 97.5 ± 1.7 | 94.4 ± 7.3
co-treatment: pictilisib 100 nM | 105 ± 12 | 98.1 ± 1.9 | 109 ± 11 | 98.9 ± 5.2 | 108 ± 2.2

Nc1ccn([C@@H]2O[C@H](CO)[C@@H](O)C2(F)F)c(=O)n1 [Gemcitabine]
Conditions | IC50 (cell viability) [µM]
NOMO-1 [1] | 0.0057

Conditions | area under dose-response curve, co-treatment: AZD3965 100 nM | area under dose-response curve, co-treatment: DMSO vehicle | area under dose-response curve, co-treatment: GSK2194069 100 nM | area under dose-response curve, co-treatment: pictilisib 100 nM | cell viability, 1 nM [%] | cell viability, 10 nM [%] | cell viability, 100 nM [%] | cell viability, 1000 nM [%] | cell viability, 10000 nM [%]
BV-173 | – | – | – | – | 83.3 | -0.488 | 0.0466 | 0.053 | -0.136
HEL | – | – | – | – | 105 | 1.42 | -0.289 | 0.472 | 0.991
HL-60 [3] | – | – | – | – | 104 | 38.9 | -0.42 | 0.321 | 0.435
HL-60 [5] | 0.648 | 0.631 | 0.634 | 0.663 | – | – | – | – | –
K-562 | – | – | – | – | 92.6 | 62.1 | 37.3 | 29.6 | 28.7
KCL-22 | – | – | – | – | 104 | 37.7 | 9.55 | 8.82 | 9.48
KG-1 | – | – | – | – | 105 | 33.4 | 9.8 | 11.5 | 9.39
KU-812 | – | – | – | – | 90.8 | 17.4 | 7.87 | 6.94 | 6.04
LAMA-84 | – | – | – | – | 95.6 | 45.7 | 5.22 | 4.64 | 4.9
ML-2 | – | – | – | – | 96.3 | 3.45 | 1.35 | 2.33 | 2.18
MOLM-13 | – | – | – | – | 96.6 | 2.43 | 0.0219 | 0.303 | 0.34
MV4-11 | – | – | – | – | 78.5 | -0.0353 | -0.464 | 0.602 | 0.268
Mono-Mac-6 | – | – | – | – | 95.1 | 2.34 | 1.01 | 0.852 | 0.24
NOMO-1 [2] | – | – | – | – | 103 | 24.5 | 3.18 | 1.37 | 0.238
SHI-1 | – | – | – | – | 101 | 25.9 | 34.1 | 0.0306 | -0.276
THP-1 | – | – | – | – | 110 | 44.4 | 30.5 | 23.5 | 20.4

cell viability [%], HL-60 [4]
Conditions | 0.001 µM | 0.01 µM | 0.1 µM | 1 µM | 10 µM
co-treatment: AZD3965 100 nM | 101 ± 4.7 | 82.7 ± 21 | 5.92 ± 1.7 | 4.29 ± 1.1 | 3.15 ± 0.62
co-treatment: DMSO vehicle | 99.76 ± 0.9 | 85.6 ± 14 | 7.57 ± 0.71 | 6.18 ± 1.1 | 3.121 ± 0.023
co-treatment: GSK2194069 100 nM | 104 ± 3.8 | 84.92 ± 0.64 | 7.69 ± 2.4 | 5.54 ± 1.7 | 3.32 ± 1.2
co-treatment: pictilisib 100 nM | 97.8 ± 12 | 74.5 ± 11 | 6.77 ± 1.7 | 5.09 ± 0.17 | 2.52 ± 0.74

OCCN1C[C@H](O)[C@@H](O)[C@H](O)[C@H]1CO [Miglitol]
Conditions | IC50 (cell viability) [µM]
NOMO-1 [1] | > 10

Conditions | area under dose-response curve, co-treatment: AZD3965 100 nM | area under dose-response curve, co-treatment: DMSO vehicle | area under dose-response curve, co-treatment: GSK2194069 100 nM | area under dose-response curve, co-treatment: pictilisib 100 nM | cell viability, 1 nM [%] | cell viability, 10 nM [%] | cell viability, 100 nM [%] | cell viability, 1000 nM [%] | cell viability, 10000 nM [%]
BV-173 | – | – | – | – | 90.6 | 110 | 89.7 | 94.6 | 105
HEL | – | – | – | – | 107 | 101 | 86.5 | 96.7 | 101
HL-60 [3] | – | – | – | – | 86.9 | 95.7 | 93.1 | 105 | 87.2
HL-60 [5] | < 0.0301 | < 0.0301 | < 0.0301 | < 0.0301 | – | – | – | – | –
K-562 | – | – | – | – | 97.8 | 98.5 | 83.5 | 108 | 102
KCL-22 | – | – | – | – | 91.5 | 108 | 96.6 | 95.9 | 106
KG-1 | – | – | – | – | 101 | 95.7 | 91.9 | 94.7 | 101
KU-812 | – | – | – | – | 101 | 103 | 86.9 | 98.3 | 96
LAMA-84 | – | – | – | – | 97 | 97.8 | 101 | 98.5 | 93.6
ML-2 | – | – | – | – | 95.4 | 104 | 89.3 | 96 | 105
MOLM-13 | – | – | – | – | 92.1 | 91.3 | 93 | 123 | 99.1
MV4-11 | – | – | – | – | 102 | 97 | 90.4 | 106 | 106
Mono-Mac-6 | – | – | – | – | 106 | 102 | 98.1 | 91.3 | 99.1
NOMO-1 [2] | – | – | – | – | 98.2 | 102 | 100 | 93.7 | 98.5
SHI-1 | – | – | – | – | 102 | 109 | 105 | 92.8 | 103
THP-1 | – | – | – | – | 102 | 106 | 100 | 95.9 | 101

cell viability [%], HL-60 [4]
Conditions | 0.001 µM | 0.01 µM | 0.1 µM | 1 µM | 10 µM
co-treatment: AZD3965 100 nM | 100.7 ± 0.68 | 103.6 ± 0.14 | 94.8 ± 14 | 102 ± 2.9 | 100.28 ± 0.095
co-treatment: DMSO vehicle | 96 ± 3.3 | 101 ± 2.5 | 96.3 ± 4.1 | 94.9 ± 8.1 | 99.54 ± 0.43
co-treatment: GSK2194069 100 nM | 99.52 ± 0.9 | 109 ± 3 | 91.7 ± 16 | 97.8 ± 7.8 | 109 ± 7.6
co-treatment: pictilisib 100 nM | 97.8 ± 6.1 | 104 ± 3.2 | 86.9 ± 14 | 98.1 ± 6.2 | 106 ± 1.8
